The term IC50 denotes the concentration needed to halve the response being measured.

“Also recorded” adds a separate entry of the source. Where two headings read alike, the source gives them in different places.

The text below walks through data of patent publication US20010009913A1, “Anxiety method” (priority 1999, published 2001).

Data set [1] can be described thus: Human pharmacokinetic study, oral buspirone BID for 25 days.
A further data set deals with rat pups. Description: Rat pup isolation-induced ultrasonic vocalization test (vocalization and locomotor activity). The class given is in vivo. The following applies: sc, 30 min prior to test; for ID50, dose predicted to reduce the number of ultrasonic calls by 50%: 9-11 day old rat pups, cold plate. The text has this:
Ultrasonic vocalizations emitted by rat pups following isolation from their mother and littermates and subjected to a variety of environmental stimuli (e.g., cold temperature) has proven to be a sensitive method for assessing potential anxiolytic and anxiogenic compounds (Winslow and Insel, 1991, Psychopharmacology, 105:513-520). Psychoactive compounds purported to be anxiolytic suppress the frequency of ultrasonic calls whereas, calls are increased by drugs with anxiogenic properties. More importantly, the isolation-induced ultrasonic vocalization paradigm appears to be most sensitive for detecting anxiolytic properties across a broad spectrum of drug classes such as benzodiazepines, 5-HT reuptake inhibitors, 5-HT1A agonists as well as NMDA antagonists.
Harlan Sprague-Dawley rat pups (male and female) were housed in polycarbonate cages with the dam until 9-11 days old. Thirty minutes before testing, pups were removed from the dam, placed into a new cage with a small amount of home bedding and brought into the lab and placed under a light to maintain body temperature at 37° C. Pups were then weighed, sexed, marked and returned to the litter group until behavioral assessment. Testing took place in a Plexiglas recording chamber that contained a metal plate maintained at (18-20° C.) with a 5×5 cm grid drawn on the plate. A microphone was suspended 10 cm above the plate to record ultrasonic vocalizations. Ultrasonic calls were recorded using the Noldus UltraVox system providing on-line analysis of the frequency and duration of calls. The number of grid cells entered by the pup was also collected by visual scoring. […] Immediately following the collection of the baseline measures, pups were injected with vehicle or drug subcutaneously at the nape of the neck and returned to its littermates. […] Baseline differences and percent change from baseline for the frequency of ultrasonic vocalizations and grid cell crossings were analyzed using a one-way ANOVA. […]

The next data set deals with T1, human 5-HT1A receptor (Homo sapiens, UniProt P08908).
T1 construct: expressed in transfected cells; host or cells: HEK293 cells
T1 sequence (P08908 1-422): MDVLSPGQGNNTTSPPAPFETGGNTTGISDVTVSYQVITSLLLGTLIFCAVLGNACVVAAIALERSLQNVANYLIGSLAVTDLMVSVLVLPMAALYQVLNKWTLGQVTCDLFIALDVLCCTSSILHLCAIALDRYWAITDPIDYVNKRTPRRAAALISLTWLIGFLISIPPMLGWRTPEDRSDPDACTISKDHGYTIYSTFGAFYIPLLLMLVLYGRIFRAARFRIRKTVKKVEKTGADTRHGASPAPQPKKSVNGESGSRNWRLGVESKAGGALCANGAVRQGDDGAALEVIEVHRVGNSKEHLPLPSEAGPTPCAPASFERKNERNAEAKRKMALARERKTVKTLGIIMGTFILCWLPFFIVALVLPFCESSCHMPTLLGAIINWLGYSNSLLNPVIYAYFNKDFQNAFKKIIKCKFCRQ
Description: 5-HT1A receptor binding assay. The following applies: for Ki: read-out: K1 value. The procedure:
Membranes are prepared for binding using the human 5-HT1A receptor expressed in HEK293 cells. Cells are collected and ruptured using a dounce homogenizer. The cells are spun at 18000xg for 10 minutes and the pellet is resuspended in assay buffer, frozen in liquid nitrogen and kept at −80° C. until the day of the assay.
A total of 30 ug protein is used per well. The assay is carried out in 96-deep-well plates. The assay buffer is 50 mM HEPES containing 2.5 mM MgCl2 and 2 mM EGTA. […] 10 mM serotonin serves as blocking agent to determine non-specific binding. The reaction is terminated by the addition of 1 ml of ice cold 50 mM HEPES buffer and rapid filtration through a Brandel Cell Harvester using Whatman GF/B filters. The filter pads are counted in an LKB Trilux liquid scintillation counter. IC50 values are determined using non-linear regression by Excel-fit.

Data set [2] can be described thus: Modified Vogel Conflict test. The following applies: earlier in-house testing. Type of data set: in vivo. The text has this:
Earlier in-house functional testing of BMY 28674 utilized an in vivo test method based on modification of the Vogel Conflict test, a simple reliable conflict procedure for testing antianxiety agents (see: Vogel, et al., Psychopharmacologia, (Berl.) 21, pp.1-7, 1971). […] No useful antianxiety activity has been ascribed to BMY 28674 previously.

In data set [3] the test system is dorsal raphe neurons. Description: Inhibition of dorsal raphe neuronal firing after systemic administration. The class given is in vivo. The note with it: previous in-house testing, I.V. and intragastric, rats. From the text: See: VanderMaelen, et al., Eur. J. Pharmacol., 129, pp. 123-30, 1986. While one metabolite, the structural fragment 1-(2-pyrimidinyl)piperazine, also known as 1-PP, [drawing 3]

The next data set has as its system CYP3A4. Description: Inhibition of the metabolism of buspirone by ketoconazole in pooled HLM. The following applies: ketoconazole concentrations up to 0.125 μM.
The test system of data set [4] is dorsal raphe neurons. The following applies: VanderMaelen et al. 1986; cited from earlier work.
The conditions of data set [5]: Gammans et al. 1986; cited from earlier work.
Where [6] appears, read: membranes of HEK293 cells, 1 nM 3H-8-OH-DPAT, read-out: IC50.
Where [7] appears, read: membranes of HEK293 cells, 1 nM 3H-8-OH-DPAT.

In the case of `O=C1CC2(CCCC2)C(O)C(=O)N1CCCCN1CCN(c2ncccn2)CC1` (centres unmarked) [BMY 28674, 6-hydroxy-8-[4-[4-(2-pyrimidinyl)-piperazinyl]-butyl]-8-azaspiro[4.5]-7,9-dione], the “blood concentration of BMY 28674 relative to 1-PP” value in data set [1] (after oral buspirone, human subjects) was “several-fold greater; also recorded: several-fold higher”. Further, the “ID50, dose predicted to reduce the number of ultrasonic calls by 50%” value in the data set on rat pups is 0.13 mg/kg. The “ID50 dose estimated to reduce locomotor activity” value with rat pups (grid cell crossings) is 0.41 mg/kg. The IC50 on human 5-HT1A receptor (setting [6]) was found to be 114 nM. For the same compound, the Ki on human 5-HT1A receptor (setting [7]) was 57 nM. The “antianxiety response in the Vogel test” value in data set [2] is listed as “did not elicit an antianxiety response”.
For the compound `O=C1CC2(CCCC2)CC(=O)N1CCCCN1CCN(c2ncc(O)cn2)CC1` [5-OH-buspirone (BMY 14131)], the IC50 on human 5-HT1A receptor (setting [6]) came to 928 nM. Also, the Ki at human 5-HT1A receptor (setting [7]) worked out at 464 nM.
Consider `c1cnc(N2CCNCC2)nc1` [1-PP, 1-(2-pyrimidinyl)piperazine], for which the “inhibition of dorsal raphe neuronal firing” value with dorsal raphe neurons [3] is listed as “weak inhibition”. Besides, at human 5-HT1A receptor, the IC50 was more than 1000 nM and the “binding / affinity at the 5-HT1A receptor” value is reported as “does not demonstrate binding”.
Consider `CC(=O)N1CCN(c2ccc(OCC3COC(Cn4ccnc4)(c4ccc(Cl)cc4Cl)O3)cc2)CC1` (centres unmarked) [ketoconazole], for which the “effect on buspirone metabolism” value with CYP3A4 is recorded as “No effect”.
As to `O=C1CC2(CCCC2)CC(=O)N1CCCCN1CCN(c2ncccn2)CC1` [Buspirone], in the data set with dorsal raphe neurons [4], the “inhibition of firing of dorsal raphe neurons” value was “potently inhibits”. The same compound returned a concentration at 2 h in data set [1] (human, blood, po) of less than 1 ng/mL. For the same compound, the safety and tolerability entry in data set [1] (multiple oral doses, five dose levels 5-30 mg BID, healthy adults, 25 days) is “safe and generally well tolerated”. The “mean blood level concentration of buspirone” value in data set [1] (oral buspirone BID, at the higher doses, FIG. 3) is 1 to 2 ng/mL. Also, the “variation of maximum plasma concentration between individuals” value in data set [5] is listed as “up to 10 fold”. For the same compound, the “ID50, dose predicted to reduce the number of ultrasonic calls by 50%” value in the data set on rat pups was 0.10 mg/kg.
As to `O=C1CC2(CCC(O)C2)CC(=O)N1CCCCN1CCN(c2ncccn2)CC1` (centres unmarked) [3-OH-buspirone (BMY 14295)], at human 5-HT1A receptor (setting [6]), the IC50 was determined as 652 nM. Moreover, the Ki at human 5-HT1A receptor (setting [7]) came to 326 nM.
